Calls of active or inactive are those of the source. No cut-off for these calls is given here.
What was measured:
[1] = test system: MRC5; assay: Cytotoxicity against human MRC5 cells assessed as cell growth inhibition measured after 72 hrs by MTT assay; assay type: cell-based; settings: MRC5, 72 h
[2] = test system: A549; assay: Induction of apoptosis in human A549 cells assessed as late apoptotic cells by measuring red colour signal measured after 72 hrs by fluorescent double-staining method; assay type: functional, cell-based
[3] = test system: HT-29; assay: Cytotoxicity against human HT-29 cells assessed as cell growth inhibition measured after 72 hrs by MTT assay; assay type: functional, cell-based; settings: HT-29, 72 h
[4] = test system: A549; assay: Cytotoxicity against human A549 cells assessed as cell growth inhibition measured after 72 hrs by MTT assay; assay type: functional, cell-based; settings: A549, 72 h
[5] = test system: HeLa; assay: Cytotoxicity against human Hela cells assessed as cell growth inhibition measured after 72 hrs by MTT assay; assay type: functional, cell-based
[6] = test system: MDA-MB-231; assay: Induction of apoptosis in human MDA-MB-231 cells assessed as late apoptotic cells by measuring red colour signal measured after 72 hrs by fluorescent double-staining method; assay type: functional, cell-based
[7] = test system: HT-29; assay: Induction of apoptosis in human HT-29 cells assessed as late apoptotic cells by measuring red colour signal measured after 72 hrs by fluorescent double-staining method; assay type: functional, cell-based
[8] = test system: MCF7; assay: Cytotoxicity activity against human MCF7 assessed as inhibition of cell growth measured after 72 hrs by MTT assay; assay type: functional, cell-based; settings: MCF7, 72 h
[9] = test system: MDA-MB-231; assay: Cytotoxicity against human MDA-MB-231 cells assessed as cell growth inhibition measured after 72 hrs by MTT assay; assay type: functional, cell-based; settings: MDA-MB-231, 72 h
[10] = test system: PC-3; assay: Cytotoxicity against human PC-3 cells assessed as cell growth inhibition measured after 72 hrs by MTT assay; assay type: functional, cell-based; settings: PC-3, 72 h
[11] = molecular target: Estrogen receptor beta (Homo sapiens) (UniProt Q92731); assay: Binding affinity to EYFP-tagged human ERbeta-LBD expressed in Saccharomyces cerevisiae FY250 strain assessed as fluorescence intensity at 10 uM incubated for 14 to 16 hrs by fluorescence spectroscopy based fluorescence microscopy relative to control; settings: time 14-16 hrs
Estrogen receptor beta (Homo sapiens), sequence (Q92731 whole entry, the tested form may be a part): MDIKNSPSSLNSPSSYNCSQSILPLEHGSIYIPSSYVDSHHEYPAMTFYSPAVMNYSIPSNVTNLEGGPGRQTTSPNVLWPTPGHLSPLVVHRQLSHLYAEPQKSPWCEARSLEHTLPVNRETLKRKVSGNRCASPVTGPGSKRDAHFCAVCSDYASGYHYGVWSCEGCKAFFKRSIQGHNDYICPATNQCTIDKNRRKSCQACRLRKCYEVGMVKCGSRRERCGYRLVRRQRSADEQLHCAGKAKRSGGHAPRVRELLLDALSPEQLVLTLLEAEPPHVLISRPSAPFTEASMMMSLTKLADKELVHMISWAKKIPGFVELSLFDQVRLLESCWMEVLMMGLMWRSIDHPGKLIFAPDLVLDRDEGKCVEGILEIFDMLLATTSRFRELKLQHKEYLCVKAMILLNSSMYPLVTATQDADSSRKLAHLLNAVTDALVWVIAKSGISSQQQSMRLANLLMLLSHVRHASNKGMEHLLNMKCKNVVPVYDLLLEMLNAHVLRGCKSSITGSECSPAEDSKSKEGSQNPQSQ

[12] = molecular target: T1, Estrogen receptor (Homo sapiens) (UniProt P03372); assay: Binding affinity to EYFP-tagged human ERalpha-LBD expressed in Saccharomyces cerevisiae FY250 strain assessed as fluorescence intensity at 10 uM incubated for 14 to 16 hrs by fluorescence spectroscopy based fluorescence microscopy relative to control; settings: time 14-16 hrs
T1 sequence (whole entry): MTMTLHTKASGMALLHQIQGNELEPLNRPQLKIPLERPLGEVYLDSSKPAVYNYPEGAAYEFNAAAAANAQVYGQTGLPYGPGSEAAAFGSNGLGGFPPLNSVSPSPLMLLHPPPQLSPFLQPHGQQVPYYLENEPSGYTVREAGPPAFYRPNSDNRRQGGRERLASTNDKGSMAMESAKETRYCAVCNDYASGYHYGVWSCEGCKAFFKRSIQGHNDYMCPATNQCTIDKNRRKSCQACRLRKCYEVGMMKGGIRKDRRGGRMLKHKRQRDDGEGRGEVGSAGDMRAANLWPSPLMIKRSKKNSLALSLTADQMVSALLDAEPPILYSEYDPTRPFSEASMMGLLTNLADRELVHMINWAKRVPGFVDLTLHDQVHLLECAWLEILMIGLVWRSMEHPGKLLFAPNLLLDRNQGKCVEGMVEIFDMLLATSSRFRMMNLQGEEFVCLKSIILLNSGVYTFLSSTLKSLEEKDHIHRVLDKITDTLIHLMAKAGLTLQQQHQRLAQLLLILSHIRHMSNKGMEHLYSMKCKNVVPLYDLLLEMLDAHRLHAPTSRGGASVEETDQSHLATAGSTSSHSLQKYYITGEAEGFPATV

C[C@]12CC[C@H]3[C@@H](C[C@@H](O)[C@@]4(O)C[C@@H](O)CC[C@]34C)[C@@H]1CC(=O)OC2
IC50 [1]: > 100 µM
Activity [2]: Active
IC50 [3]: 9.34 µM
IC50 [4]: 0.99 µM
IC50 [5]: 93.6 µM
Activity [6]: Active
Activity [7]: Active
IC50 [8]: 8.62 µM
IC50 [9]: 13.8 µM
IC50 [10]: > 100 µM

COc1cccc2c1C(=O)c1c(O)c3c(c(O)c1C2=O)C[C@@](O)(C(=O)CO)C[C@@H]3O[C@H]1C[C@H](N)[C@H](O)[C@H](C)O1 [DOXORUBICIN]
IC50 [1]: 0.24 µM
IC50 [4]: > 100 µM
IC50 [10]: 84.2 µM

CO[C@]12C[C@@H](O)CC[C@]1(C)[C@H]1CC[C@]3(C)COC(=O)C[C@H]3[C@@H]1C[C@H]2O
IC50 [1]: > 100 µM
IC50 [3]: > 100 µM
IC50 [4]: > 100 µM
IC50 [5]: 7.06 µM
Activity [6]: Active
IC50 [8]: > 100 µM
IC50 [9]: 4.4 µM
IC50 [10]: 24.8 µM

CC(=O)O[C@H]1CC[C@]2(C)[C@H]3CC[C@]4(C)COC(=O)C[C@H]4[C@@H]3C[C@@H](O)[C@@]2(O)C1
IC50 [1]: > 100 µM
IC50 [3]: 86.6 µM
IC50 [4]: > 100 µM
IC50 [5]: > 100 µM
Activity [11]: Active
IC50 [8]: > 100 µM
IC50 [9]: > 100 µM
IC50 [10]: > 100 µM

C[C@]12CCC(=O)C(O)=C1CC[C@@H]1[C@@H]2CC[C@]2(C)C(=O)CC[C@@H]12 [FORMESTANE]
IC50 [1]: 0.1 µM
IC50 [3]: > 100 µM
IC50 [4]: 38.6 µM
IC50 [5]: 3.36 µM
IC50 [8]: > 100 µM
IC50 [10]: 26.4 µM

C[C@]12CC[C@H]3[C@@H](CC(=O)[C@@]4(O)C[C@@H](O)CC[C@]34C)[C@@H]1CC(=O)OC2
IC50 [1]: > 100 µM
IC50 [3]: > 100 µM
IC50 [4]: > 100 µM
IC50 [5]: 33.6 µM
Activity [6]: Active
IC50 [8]: > 100 µM
IC50 [9]: 6.16 µM
IC50 [10]: > 100 µM

CC(=O)O[C@H]1CC[C@]2(C)[C@H]3CC[C@]4(C)COC(=O)C[C@H]4[C@@H]3C[C@@H](O)[C@@]2(Br)C1
IC50 [1]: > 100 µM
IC50 [3]: > 100 µM
IC50 [4]: 26.1 µM
IC50 [5]: 13.6 µM
Activity [6]: Active
IC50 [8]: 86.6 µM
IC50 [9]: 26.5 µM
IC50 [10]: > 100 µM

CC(=O)O[C@H]1CC[C@]2(C)[C@H]3CC[C@]4(C)COC(=O)C[C@H]4[C@@H]3C[C@@H](Cl)[C@@]2(Cl)C1
IC50 [1]: > 100 µM
Activity [2]: Active
IC50 [3]: 10.8 µM
IC50 [4]: 15.5 µM
IC50 [5]: 25.9 µM
Activity [6]: Active
Activity [7]: Active
IC50 [8]: > 100 µM
IC50 [9]: 23.7 µM
IC50 [10]: > 100 µM

CC(=O)O[C@H]1CC[C@]2(C)[C@H]3CC[C@]4(C)COC(=O)C[C@H]4[C@@H]3C[C@H]3O[C@]32C1
IC50 [1]: > 100 µM
IC50 [3]: 14 µM
IC50 [4]: > 100 µM
IC50 [5]: 16.9 µM
Activity [12]: Active
Activity [6]: Active
IC50 [8]: 100 µM
IC50 [9]: 33.9 µM
IC50 [10]: > 100 µM

C[C@]12CC[C@H]3[C@@H](CC(=O)[C@@]4(O)CC(=O)CC[C@]34C)[C@@H]1CC(=O)OC2
IC50 [1]: > 100 µM
IC50 [3]: 42.2 µM
IC50 [4]: > 100 µM
IC50 [5]: 40.1 µM
Activity [12]: Active
Activity [6]: Active
IC50 [8]: > 100 µM
IC50 [9]: 4.81 µM
IC50 [10]: > 100 µM

CC(=O)O[C@H]1CC[C@]2(C)[C@H]3CC[C@]4(C)COC(=O)C[C@H]4[C@@H]3C[C@@H](Br)[C@@]2(Br)C1
IC50 [1]: > 100 µM
Activity [2]: Active
IC50 [3]: 16.2 µM
IC50 [4]: 36.9 µM
IC50 [5]: 9.46 µM
Activity [12]: Active
Activity [6]: Active
IC50 [8]: 34.9 µM
IC50 [9]: 13.3 µM
IC50 [10]: > 100 µM

CC(=O)O[C@H]1CC[C@]2(C)[C@H]3CC[C@]4(C)COC(=O)C[C@H]4[C@@H]3C[C@@H](O)[C@@]2(Cl)C1
IC50 [1]: > 100 µM
IC50 [3]: 72.3 µM
IC50 [4]: > 100 µM
IC50 [5]: 36.9 µM
IC50 [8]: > 100 µM
IC50 [9]: > 100 µM
IC50 [10]: > 100 µM

CC(=O)O[C@H]1CC[C@]2(C)[C@H]3CC[C@]4(C)COC(=O)C[C@H]4[C@@H]3C[C@@H]3O[C@@]32C1
IC50 [1]: > 100 µM
IC50 [3]: > 100 µM
IC50 [4]: > 100 µM
IC50 [5]: 99.2 µM
Activity [6]: Active
IC50 [8]: > 100 µM
IC50 [9]: 6.16 µM
IC50 [10]: > 100 µM

CC(=O)O[C@H]1CC[C@]2(C)[C@H]3CC[C@]4(C)COC(=O)C[C@H]4[C@@H]3C[C@@H](OC(C)=O)[C@@]2(O)C1
IC50 [1]: > 100 µM
IC50 [3]: > 100 µM
IC50 [4]: > 100 µM
IC50 [5]: 8.66 µM
Activity [6]: Active
IC50 [8]: 12.7 µM
IC50 [9]: 31 µM
IC50 [10]: 6.6 µM

CO[C@@H]1C[C@H]2[C@@H]3CC(=O)OC[C@@]3(C)CC[C@@H]2[C@@]2(C)CC[C@H](O)C[C@]12O
IC50 [1]: > 100 µM
IC50 [3]: > 100 µM
IC50 [4]: > 100 µM
IC50 [5]: 27 µM
Activity [6]: Active
IC50 [8]: 73.6 µM
IC50 [9]: 3.38 µM
IC50 [10]: 10.8 µM

CC(=O)O[C@H]1CC[C@]2(C)[C@H]3CC[C@]4(C)COC(=O)C[C@H]4[C@@H]3C[C@H](Br)[C@]2(O)C1
IC50 [1]: > 100 µM
IC50 [3]: > 100 µM
IC50 [4]: > 100 µM
IC50 [5]: > 100 µM
IC50 [8]: 12.9 µM
IC50 [9]: > 100 µM
IC50 [10]: > 100 µM

CC(=O)O[C@H]1CC[C@]2(C)[C@H]3CC[C@]4(C)COC(=O)C[C@H]4[C@@H]3CC(=O)[C@@]2(O)C1
IC50 [1]: > 100 µM
IC50 [3]: > 100 µM
IC50 [4]: > 100 µM
IC50 [5]: > 100 µM
Activity [6]: Active
IC50 [8]: 81.8 µM
IC50 [9]: 23.7 µM
IC50 [10]: > 100 µM

CC(=O)O[C@H]1CC[C@]2(C)[C@H]3CC[C@]4(C)COC(=O)C[C@H]4[C@@H]3C[C@@H](O)[C@@]2(F)C1
IC50 [1]: > 100 µM
IC50 [3]: 21.2 µM
IC50 [4]: > 100 µM
IC50 [5]: > 100 µM
Activity [6]: Active
Activity [11]: Active
IC50 [8]: 42.9 µM
IC50 [9]: 9.1 µM
IC50 [10]: > 100 µM

Source: ChEMBL document CHEMBL4680315, “Synthesis and anticancer potential of novel 5,6-oxygenated and/or halogenated steroidal d-homo lactones” (Bioorg Med Chem, 2021)
